Source: patent US20110092544A1, “FUNGICIDAL PYRIDINES” (E.I. DU PONT DE nemours and company, priority 2008, published 2011)

What was measured:
Type in all cases: in vivo
[1] = system: Botrytis cinerea; experiment: Test F: tomato botrytis, preventive spray on tomato seedlings, visual disease rating
Excerpt: (§1) General protocol for preparing test suspensions for Tests A-H: The test compounds were first dissolved in acetone in an amount equal to 3% of the final volume and then suspended at the desired concentration (in ppm) in acetone and purified water (50/50 mix) containing 250 ppm of the surfactant Trem® 014 (polyhydric alcohol esters). The resulting test suspensions were then used in tests A-H. Spraying a 200 ppm test suspension to the point of run-off on the test plants was the equivalent of a rate of 500 g/ha.
The test suspension was sprayed to the point of run-off on tomato seedlings. The following day the seedlings were inoculated with a spore suspension of Botrytis cinerea (the causal agent of tomato botrytis) and incubated in saturated atmosphere at 20° C. for 48 h, and then moved to a growth chamber at 24° C. for 3 additional days, after which time disease ratings were visually made.
(§2) Results for Tests A-H are given in Table A. In the table, a rating of 100 indicates 100% disease control and a rating of 0 indicates no disease control (relative to the controls). A dash (-) indicates no test results. All results are for compounds tested at 200 ppm except where the compound number is followed by “*” which indicates the compound was tested at 40 ppm.

[2] = system: Septoria tritici; experiment: Test C: wheat leaf blotch, preventive spray on wheat seedlings, visual disease rating
Excerpt: as §1
The test suspension was sprayed to the point of run-off on wheat seedlings. The following day the seedlings were inoculated with a spore suspension of Septoria tritici (the causal agent of wheat leaf blotch) and incubated in a saturated atmosphere at 20° C. for 48 h, and moved to a growth chamber at 20° C. for 19 additional days, after which time disease ratings were visually made.
as §2

[3] = system: Alternaria solani; experiment: Test E: tomato early blight, preventive spray on tomato seedlings, visual disease rating
Excerpt: as §1
The test suspension was sprayed to the point of run-off on tomato seedlings. The following day the seedlings were inoculated with a spore suspension of Alternaria solani (the causal agent of tomato early blight) and incubated in a saturated atmosphere at 27° C. for 48 h, and then moved to a growth chamber at 20° C. for 5 days, after which time disease ratings were visually made.
as §2

[4] = system: Septoria nodorum; experiment: Test D: wheat glume blotch, preventive spray on wheat seedlings, visual disease rating
Excerpt: as §1
The test suspension was sprayed to the point of run-off on wheat seedlings. The following day the seedlings were inoculated with a spore suspension of Septoria nodorum (the causal agent of wheat glume blotch) and incubated in a saturated atmosphere at 20° C. for 48 h, and then moved to a growth chamber at 20° C. for 7 days, after which time disease ratings were visually made.
as §2

[5] = system: Erysiphe graminis f. sp. tritici; experiment: Test A: wheat powdery mildew, preventive spray on wheat seedlings, visual disease rating
Excerpt: as §1
The test suspension was sprayed to the point of run-off on wheat seedlings. The following day the seedlings were inoculated with a spore dust of Erysiphe graminis f. sp. tritici (the causal agent of wheat powdery mildew) and incubated in a growth chamber at 20° C. for 8 days, after which time disease ratings were visually made.
as §2

[6] = system: Puccinia recondite f. sp. tritici; experiment: Test B: wheat leaf rust, preventive spray on wheat seedlings, visual disease rating
Excerpt: as §1
The test suspension was sprayed to the point of run-off on wheat seedlings. The following day the seedlings were inoculated with a spore suspension of Puccinia recondite f. sp. tritici (the causal agent of wheat leaf rust) and incubated in a saturated atmosphere at 20° C. for 24 h, and then moved to a growth chamber at 20° C. for 7 days, after which time disease ratings were visually made.
as §2

[7] = 200 ppm, 100 = 100% disease control, 0 = no control
[8] = 40 ppm (compound number followed by *)

| SMILES | Test F rating (% disease control) [1, 7] [%] | Test C rating (% disease control) [2, 7] [%] | Test E rating (% disease control) [3, 7] [%] | Test D rating (% disease control) [4, 7] [%] | Test A rating (% disease control) [5, 7] [%] | Test B rating (% disease control) [6, 7] [%] | Test F rating (% disease control) [1, 8] [%] | Test C rating (% disease control) [2, 8] [%] | Test E rating (% disease control) [3, 8] [%] | Test D rating (% disease control) [4, 8] [%] | Test A rating (% disease control) [5, 8] [%] | Test B rating (% disease control) [6, 8] [%] |
| --- | --- | --- | --- | --- | --- | --- | --- | --- | --- | --- | --- | --- |
| COc1ccc(-c2c(C)ncc(C(C)(C)O)c2-c2cc(OC)cc(OC)c2)cc1 [Compound 62] | 95 | 94 | 100 | 73 | 80 | 100 |  |  |  |  |  |  |
| COc1ccc(-c2c(C)ncc(C(C)(O)CO)c2-c2cc(OC)cc(OC)c2)cc1 (single isomer, unassigned) [Compound 83] | 54 | 95 | 99 | 0 | 95 | 99 |  |  |  |  |  |  |
| CCC(O)(CC)c1cnc(C)c(-c2c(F)cc(F)cc2F)c1-c1cc(OC)cc(OC)c1 [Compound 98] | 93 | 92 | 9 | 0 | 86 | 92 |  |  |  |  |  |  |
| COc1cc(OC)cc(-c2c(C(C)O)cnc(C)c2-c2c(F)cc(F)cc2F)c1 (stereo not drawn) [Compound 107] | 99 | 98 | 100 | 98 | 100 | 100 |  |  |  |  |  |  |
| COc1cc(OC)cc(-c2c(-c3cccs3)cnc(C)c2-c2c(F)cc(F)cc2F)c1 [Compound 132] |  |  |  |  |  |  | 99 | 99 | 93 | 97 | 90 | 99 |
| COc1cc(OC)cc(-c2c(C(C)CO)cnc(C)c2-c2c(F)cc(OC)cc2F)c1 (stereo not drawn) [Compound 92] |  |  |  |  |  |  | 94 | 96 | 100 | 82 | 76 | 99 |
| COc1cc(OC)cc(-c2c(-c3ccc(Cl)nc3)cnc(C)c2-c2c(F)cc(F)cc2F)c1 [Compound 127] |  |  |  |  |  |  | 99 | 99 | 0 | 0 | 90 | 97 |
| COc1cc(OC)cc(-c2c(C(C)(C)O)cnc(C)c2-c2c(F)ccc(F)c2F)c1 [Compound 69] | 91 | 94 | 100 | 86 | 99 | 100 |  |  |  |  |  |  |
| CCC(O)c1cnc(C)c(-c2c(F)cc(F)cc2F)c1-c1cc(OC)cc(OC)c1 (stereo not drawn) [Compound 99] | 98 | 94 | 100 | 100 | 100 | 100 |  |  |  |  |  |  |
| COc1cc(OC)cc(-c2c(C(C)(C)O)cnc(C)c2-c2c(F)ccc(OC)c2F)c1 [Compound 106] | 98 | 98 | 99 | 0 | 96 | 100 |  |  |  |  |  |  |
| COc1cc(OC)cc(-c2c(-c3ccccc3)cnc(C)c2-c2ccccc2F)c1 [Compound 86] |  |  |  |  |  |  | 92 | 93 | 31 | 0 | 96 | 98 |
